Test results as given in patent US4665169A, “Carbapenem antibiotics” (Bristol-Myers Company, priority 1985, dated 1987).
Converted amounts (≈) assume the structure as drawn. Where two headings read alike, the source gives them in different places.

Assays:
S. pyogenes A-9604 = test: In vitro antibacterial activity, MIC by tube dilution; format: cell-based; conditions: overnight 37° C., Nutrient Broth
P. mirabilis A-9900 = test: as above; format: cell-based; conditions: overnight 37° C., Nutrient Broth
P. aeruginosa A9843a = test: In vivo activity, 50% protective dose in infected mice; conditions: Pseudomonas aeruginosa, im, 120 h, i.m., immediately and 2 hour post-infection, deaths over five days, read-out: PD50 (50% protective dose)
Experimental: BHI broth (9.0 ml) was inoculated with a loopful of thawed stock suspension of P. aeruginosa A9843a and incubated for 18 hr at 37° C. A volume of 0.5 ml of the 18 hr culture was added to 20 ml BHI broth and incubated for 3 hr. with constant shaking at 37° C. A 1/10,000 dilution of the shaker culture was prepared in 0.4% hog gastric mucin. Mice were infected by the intraperitoneal route with 0.5 ml of the bacterial suspension (corresponding to 6.0×10^4 viable cells/mouse).
Each mouse received a volume of 0.2 ml intramuscularly. Deaths were recorded over a period of five days following infection at which time the PD50 for the compound was determined by estimation of the 50% end-point using the probit analysis plot.

E. coli A15119 = test: In vitro antibacterial activity, MIC by tube dilution; format: cell-based; conditions: Escherichia coli, overnight 37° C., Nutrient Broth
E. cloacae A-9656 = test: as above; format: cell-based; conditions: Enterobacter cloacae, A9656, Lot# 1794-27; overnight 37° C., Nutrient Broth
P. aeruginosa A-9843A = test: as above; format: cell-based; conditions: overnight 37° C., Nutrient Broth
P. vulgaris A21559 = test: as above; format: cell-based; conditions: overnight 37° C., Nutrient Broth
E. coli A20341-1 = test: as above; format: cell-based; conditions: Escherichia coli, overnight 37° C., Nutrient Broth
K. pneumoniae A-9664 = test: as above; format: cell-based; conditions: Klebsiella pneumoniae, A9664; Lot# 1794-20; overnight 37° C., Nutrient Broth
[1] = system: P. aeruginosa (Carbenicillin-resistant) A21213; conditions: Lot# 1794-27, overnight 37° C., Nutrient Broth
E. cloacae A-9659 = test: In vitro antibacterial activity, MIC by tube dilution; format: cell-based; conditions: Enterobacter cloacae, A9659, Lot# 1794-27; overnight 37° C., Nutrient Broth
S. aureus A-9537 [2] = test: In vitro antibacterial activity, MIC by tube dilution, 50% serum; format: cell-based
[3] = system: S. aureus (Penicillin-resistant) A-9606; test: In vitro antibacterial activity, MIC by tube dilution; format: cell-based; conditions: Staphylococcus aureus, Nutrient Broth
[4] = Blood levels in mice after intramuscular dosing; format: in vivo; conditions: mouse, im, 20 mg/kg; for AUC / Cmax / Tmax / half-life: 20 mg/kg i.m.; for concentration at 10 min: 10 min after 20 mg/kg i.m.; for concentration at 20 min: 20 min after 20 mg/kg i.m.; for concentration at 0.5 h: 30 min after 20 mg/kg i.m.; for concentration at 0.75 h: 45 min after 20 mg/kg i.m.; for concentration at 1 h: 60 min after 20 mg/kg i.m.; for concentration at 1.5 h: 90 min after 20 mg/kg i.m.
Experimental: For the determination of blood levels, two groups of mice were used. Each group consisted of four 20 g mice. Prior to dosing (5-10 min.) one of the groups received an i.p. injection of a dipeptidase inhibitor (BCH-1) at a level of 10 mg/kg.

[5] = system: P. aeruginosa (Carbenicillin-resistant) A21213; test: microbe, parasite or virus in culture; conditions: Pseudomonas aeruginosa
S. pneumoniae A-9585 = test: In vitro antibacterial activity, MIC by tube dilution; format: cell-based; conditions: Streptococcus pneumoniae, overnight 37° C., Nutrient Broth
S. faecalis A20688 = test: as above; format: cell-based; conditions: overnight 37° C., Nutrient Broth
S. aureus A-9537 [6] = test: as above; format: cell-based; conditions: overnight 37° C., Nutrient Broth
S. marcescens A20019 = test: as above; format: cell-based; conditions: overnight 37° C., Nutrient Broth
Urinary recovery in mice = format: in vivo; conditions: mouse, urine; for dose excreted at 3 h: 0-3 hr.
Experimental: Two groups of mice were used for the urinary recovery evaluation. Each group consisted of four 20 g mice. Prior to dosing (5-10 minutes) one of the groups received an i.p. injestion of a dipeptidase inhibitor (BCH-1) at a level of 10 mg/kg. Following dosing, animals were placed in individual metabolism cages and the urine collected over ice at intervals of 0-3 and 3-6 hr. Animals were fasted overnight and a dextrose-amino acid solution was available ad libitum starting one hour before drug administration through six hours of urine collection. Urine samples were assayed for biological activity using sensitive assay plates containing B. subtilis ATCC 6633.

K. pneumoniae A20468 = test: In vitro antibacterial activity, MIC by tube dilution; format: cell-based; conditions: Klebsiella pneumoniae, A20468, Lot# 1794-27; overnight 37° C., Nutrient Broth
[7] = Half-life in pH 7.4 biological buffer; format: physicochemical; conditions: 37° C.
Experimental: To a cooled (5° C.) solution of (5R,6S)p-nitrobenzyl-6-(1^1 R-hydroxyethyl)-4R-methyl-3-(1-methyl-4-thiatetrahydrothiopyranium)-7-oxo- 1-azabicyclo[3.2.0]hept-2-ene-2-carboxyl-diphenylphosphate (2.40 g, 3.23 mmol) in tetrahydrofuran (240 mL) and 0.05M pH 7.0 phosphate buffer (240 mL) was added ether (240 mL) and 10% Pd/C (2.4 g). The mixture was hydrogenated in a Paar apparatus at 45 psi H2 at 15° C. for 1 hour. The solution was then filtered through glass fiber paper and the catalyst was washed with water (25 mL). The aqueous phase of the filtrate was washed with ether (2×100 mL) and purged under vacuum to remove any trace of organic solvent. The product was purified by reversed phase chromatography on μBondapak C-18 silica gel (100 g) using mixtures of acetonitrile-water as the eluent (10% CH3 CN--H2 O, quantity mL; 0%, 500 mL; 2%, 500 mL; 4%, 500 mL; 10%, 250 mL) to give 1.08 g of impure proudct. After lyophilization, this product and a 0.020 g sample from another experiment (starting from 0.067 mmol of the ester) was purified by hplc (hplc data re: C18 μBondapak, using 5% CH3 CN--H2 O at 4 mL/min, R. I. detector) to give 328 mg. […]

[8] = system: various Pseudomonas species; conditions: prior art statement; cited from earlier work

SMILES: C[C@@H](O)[C@H]1C(=O)N2C(C(=O)[O-])=C(SC3CC[S+](C)CC3)C[C@H]12 (some centres unmarked) [Example 1]
- MIC (S. pyogenes A-9604; Lot# 1794-27): 0.004 µg/mL (≈ 0.0116 µM)
- MIC (S. pyogenes A-9604; Streptococcus pyogenes, A9604, Lot# 1794-20, read-out: MIC): 0.004 µg/mL (≈ 0.0116 µM)
- MIC (P. mirabilis A-9900; Lot# 1794-27): 0.016 µg/mL (≈ 0.0466 µM)
- MIC (P. mirabilis A-9900; Proteus mirabilis, A9900, Lot# 1794-20, read-out: MIC): 0.016 µg/mL (≈ 0.0466 µM)
- ED50 (P. aeruginosa A9843a): 0.71 mg/kg
- MIC (E. coli A15119; A15119, Lot# 1794-20): 0.008 µg/mL (≈ 0.0233 µM)
- MIC (E. coli A15119; A15119, Lot# 1794-27): 0.016 µg/mL (≈ 0.0466 µM)
- MIC (E. cloacae A-9656): 0.25 µg/mL (≈ 0.728 µM)
- MIC (P. aeruginosa A-9843A; Lot# 1794-27): 2 µg/mL (≈ 5.82 µM)
- MIC (P. aeruginosa A-9843A; Pseudomonas aeruginosa, A9843A, Lot# 1794-20, read-out: MIC): 2 µg/mL (≈ 5.82 µM)
- MIC (P. vulgaris A21559; Lot# 1794-27): 0.016 µg/mL (≈ 0.0466 µM)
- MIC (P. vulgaris A21559; Proteus vulgaris, A21559, Lot# 1794-20, read-out: MIC): 0.016 µg/mL (≈ 0.0466 µM)
- MIC (E. coli A20341-1; A203411, Lot# 1794-20): 0.016 µg/mL (≈ 0.0466 µM)
- MIC (E. coli A20341-1; A203411, Lot# 1794-27): 0.03 µg/mL (≈ 0.0873 µM)
- MIC (K. pneumoniae A-9664): 0.03 µg/mL (≈ 0.0873 µM)
- MIC [1]: 0.25 µg/mL (≈ 0.728 µM)
- MIC (E. cloacae A-9659): 0.25 µg/mL (≈ 0.728 µM)
- MIC (S. aureus A-9537 [2]; Lot# 1794-27, overnight 37° C.): 0.016 µg/mL (≈ 0.0466 µM)
- MIC (S. aureus A-9537 [2]; Staphylococcus aureus, A9537, Lot# 1794-20, overnight 37° C., read-out: MIC): 0.016 µg/mL (≈ 0.0466 µM)
- MIC ([3]; Lot# 1794-20, overnight 37° C.): 0.016 µg/mL (≈ 0.0466 µM)
- MIC ([3]; Lot# 1794-27, overnight 37° C.): 0.03 µg/mL (≈ 0.0873 µM)
- AUC ([4]; with BCH-1 10 mg/kg i.p.): 10900 ng·h/mL
- Cmax ([4]; with BCH-1 10 mg/kg i.p.): 16100 ng/mL
- Tmax ([4]; with BCH-1 10 mg/kg i.p.): 20 min
- half-life ([4]; with BCH-1 10 mg/kg i.p.): 10 min
- AUC ([4]; without BCH-1): 6800 ng·h/mL
- Cmax ([4]; without BCH-1): 15400 ng/mL
- Tmax ([4]; without BCH-1): 10 min
- half-life ([4]; without BCH-1): 9 min
- concentration at 10 min ([4]; with BCH-1 10 mg/kg i.p.): 15400 ng/mL
- concentration at 10 min ([4]; without BCH-1): 15400 ng/mL
- concentration at 20 min ([4]; with BCH-1 10 mg/kg i.p.): 16100 ng/mL
- concentration at 20 min ([4]; without BCH-1): 11400 ng/mL
- concentration at 0.5 h ([4]; with BCH-1 10 mg/kg i.p.): 12600 ng/mL
- concentration at 0.5 h ([4]; without BCH-1): 7200 ng/mL
- concentration at 0.75 h ([4]; with BCH-1 10 mg/kg i.p.): 7400 ng/mL
- concentration at 0.75 h ([4]; without BCH-1): 2900 ng/mL
- concentration at 1 h ([4]; with BCH-1 10 mg/kg i.p.): 3000 ng/mL
- concentration at 1 h ([4]; without BCH-1): 700 ng/mL
- concentration at 1.5 h ([4]; with BCH-1 10 mg/kg i.p.): 300 ng/mL
- concentration at 1.5 h ([4]; without BCH-1): 300 ng/mL
- MIC [5]: 0.25 µg/mL (≈ 0.728 µM)
- MIC (S. pneumoniae A-9585; A9585, Lot# 1794-20): 0.001 µg/mL (≈ 0.00291 µM)
- MIC (S. pneumoniae A-9585; A9585, Lot# 1794-27): 0.002 µg/mL (≈ 0.00582 µM)
- MIC (S. faecalis A20688; Enterococcus faecalis, A20688, Lot# 1794-20, read-out: MIC): 0.5 µg/mL (≈ 1.46 µM)
- MIC (S. faecalis A20688; Lot# 1794-27): 0.5 µg/mL (≈ 1.46 µM)
- MIC (S. aureus A-9537 [6]; Lot# 1794-27): 0.008 µg/mL (≈ 0.0233 µM)
- MIC (S. aureus A-9537 [6]; Staphylococcus aureus, A9537, Lot# 1794-20, read-out: MIC): 0.008 µg/mL (≈ 0.0233 µM)
- MIC (S. marcescens A20019; Lot# 1794-27): 0.03 µg/mL (≈ 0.0873 µM)
- MIC (S. marcescens A20019; Serratia marcescens, A20019, Lot# 1794-20, read-out: MIC): 0.03 µg/mL (≈ 0.0873 µM)
- dose excreted at 3 h (Urinary recovery in mice; with BCH-1 10 mg/kg i.p., read-out: Percent Recovered (urine)): 67%
- dose excreted at 3 h (Urinary recovery in mice; without BCH-1, read-out: Percent Recovered (urine)): 44%
- dose excreted at 6 h (Urinary recovery in mice; 0-6 hr., with BCH-1 10 mg/kg i.p., read-out: Percent Recovered (urine)): 67.1%
- dose excreted at 6 h (Urinary recovery in mice; 0-6 hr., without BCH-1, read-out: Percent Recovered (urine)): 44.2%
- dose excreted at 6 h (Urinary recovery in mice; 3-6 hr., with BCH-1 10 mg/kg i.p., read-out: Percent Recovered (urine)): 0.1%
- dose excreted at 6 h (Urinary recovery in mice; 3-6 hr., without BCH-1, read-out: Percent Recovered (urine)): 0.2%
- MIC (K. pneumoniae A20468): 0.25 µg/mL (≈ 0.728 µM)

SMILES: C[C@@H](O)[C@H]1C(=O)N2C(C(=O)[O-])=C(SC3CC[S+](C)CC3)[C@H](C)[C@H]12 (stereo partly drawn) [Example 2, (5R,6S)-6-(1R-hydroxyethyl)-4R-methyl-3-(1-methyl-4-thiatetrahydrothiopyranium)-7-oxo-1-azabicyclo[3.2.0]-hept-2-ene-2-carboxylate]
- half-life [7]: 1800 min

SMILES: C[C@@H](O)[C@H]1C(=O)N2C(C(=O)O)=C(SCCN)C[C@H]12 [Thienamycin, thienamycin]
- activity against various Pseudomonas species [8]: notable activity
